Experimental data taken from PMC11146149 (RSC Advances, 2024).

Key:
Format in all cases: biochemical
COX-1 = target: T1, COX-1 (Ovis aries, UniProt P05979); experiment: In vitro COX inhibitory assay; conditions: for inhibition at 50 µg/mL / inhibition at 100 µg/mL / inhibition at 150 µg/mL: read-out: Inhibition of COX-1 (%); for Inhibition of COX-1 in comparison to indomethacin: result in words
T1 sequence (P05979 25-600): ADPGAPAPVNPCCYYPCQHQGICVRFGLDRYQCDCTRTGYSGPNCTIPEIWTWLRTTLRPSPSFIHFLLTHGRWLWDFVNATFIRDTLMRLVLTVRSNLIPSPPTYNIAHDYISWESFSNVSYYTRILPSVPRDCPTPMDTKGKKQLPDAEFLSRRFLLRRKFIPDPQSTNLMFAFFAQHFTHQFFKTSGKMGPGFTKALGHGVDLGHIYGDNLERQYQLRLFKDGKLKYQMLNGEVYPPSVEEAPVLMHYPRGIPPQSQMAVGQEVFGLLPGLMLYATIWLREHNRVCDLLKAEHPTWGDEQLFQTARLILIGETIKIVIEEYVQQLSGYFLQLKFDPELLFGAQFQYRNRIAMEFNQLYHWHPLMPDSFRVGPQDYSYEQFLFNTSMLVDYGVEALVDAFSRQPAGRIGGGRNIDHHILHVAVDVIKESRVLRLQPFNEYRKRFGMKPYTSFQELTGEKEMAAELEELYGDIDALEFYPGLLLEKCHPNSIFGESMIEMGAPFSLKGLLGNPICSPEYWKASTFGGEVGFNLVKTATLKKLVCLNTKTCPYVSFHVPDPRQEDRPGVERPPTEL

COX-2 = target: T2, COX-2 (Homo sapiens, UniProt P35354); experiment: In vitro COX inhibitory assay; conditions: for Selectivity index: COX-1/COX-2 selectivity index; for inhibition at 50 µg/mL / inhibition at 100 µg/mL / inhibition at 150 µg/mL: read-out: Inhibition of COX-2 (%); for Inhibition of COX-2 in comparison to indomethacin: result in words
T2 sequence (P35354 18-604): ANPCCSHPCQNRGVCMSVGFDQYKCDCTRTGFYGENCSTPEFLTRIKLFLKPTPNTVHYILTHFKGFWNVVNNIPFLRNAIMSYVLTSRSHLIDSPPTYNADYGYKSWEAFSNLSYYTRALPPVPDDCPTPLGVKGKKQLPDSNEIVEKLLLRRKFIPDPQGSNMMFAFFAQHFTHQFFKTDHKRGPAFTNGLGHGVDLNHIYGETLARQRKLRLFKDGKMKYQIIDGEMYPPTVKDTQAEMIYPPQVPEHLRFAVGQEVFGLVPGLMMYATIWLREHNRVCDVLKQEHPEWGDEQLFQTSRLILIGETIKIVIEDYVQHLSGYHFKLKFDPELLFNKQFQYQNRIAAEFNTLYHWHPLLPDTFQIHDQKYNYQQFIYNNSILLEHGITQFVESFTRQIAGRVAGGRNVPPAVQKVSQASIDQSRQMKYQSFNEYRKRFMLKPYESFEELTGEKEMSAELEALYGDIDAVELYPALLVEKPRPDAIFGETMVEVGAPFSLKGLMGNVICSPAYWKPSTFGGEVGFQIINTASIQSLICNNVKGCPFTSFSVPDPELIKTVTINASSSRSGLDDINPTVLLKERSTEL

egg albumin = target: T3, egg albumin (Gallus gallus, UniProt P01012); experiment: Inhibition of protein denaturation method; conditions: read-out: Inhibition of protein denaturation (%)
T3 sequence (P01012 2-386): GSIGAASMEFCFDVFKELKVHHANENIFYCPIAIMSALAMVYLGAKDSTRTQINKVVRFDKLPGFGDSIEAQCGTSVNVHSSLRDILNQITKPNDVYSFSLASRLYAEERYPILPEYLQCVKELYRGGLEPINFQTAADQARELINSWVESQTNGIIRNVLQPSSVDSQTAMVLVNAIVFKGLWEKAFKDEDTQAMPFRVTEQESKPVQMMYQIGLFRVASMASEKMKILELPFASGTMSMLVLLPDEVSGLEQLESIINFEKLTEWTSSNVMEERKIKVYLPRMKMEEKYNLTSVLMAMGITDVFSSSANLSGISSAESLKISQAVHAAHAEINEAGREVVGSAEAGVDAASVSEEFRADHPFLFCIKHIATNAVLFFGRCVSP

| Compound | IC50 (COX-1) [µM] | inhibition at 50 µg/mL (COX-1) [%] | inhibition at 100 µg/mL (COX-1) [%] | inhibition at 150 µg/mL (COX-1) [%] | IC50 (COX-2) [µM] | Selectivity index (COX-2) | inhibition at 50 µg/mL (COX-2) [%] | inhibition at 100 µg/mL (COX-2) [%] | inhibition at 150 µg/mL (COX-2) [%] | inhibition at 50 µg/mL (egg albumin) [%] | inhibition at 100 µg/mL (egg albumin) [%] | inhibition at 200 µg/mL (egg albumin) [%] | inhibition at 300 µg/mL (egg albumin) [%] | Inhibition of COX-1 in comparison to indomethacin (COX-1) | Inhibition of COX-2 in comparison to indomethacin (COX-2) |
| --- | --- | --- | --- | --- | --- | --- | --- | --- | --- | --- | --- | --- | --- | --- | --- |
| NC1=NC(c2ccco2)n2nc(C(=O)Nc3ccc(S(N)(=O)=O)cc3)nc2N1 (centres unmarked) [Compound 4, 5-Amino-7-(furan-2-yl)-N-(4-sulfamoylphenyl)-4,7-dihydro-[1,2,4]-triazolo[1,5-a][1,3,5]triazine-2-carboxamide] | 99.5 | 62.43 ± 0.01 | 80.64 ± 0.01 | 90.02 ± 0.02 | 69 | 1.44 | 90.03 ± 0.02 | 95.11 ± 0.01 | 98.92 ± 0.02 | 90.3 | 95 | 99.2 | 91.3 | – | – |
| Cc1ccccc1C1N=C(N)Nc2nc(C(=O)Nc3ccc(S(N)(=O)=O)cc3)nn21 (centres unmarked) [Compound 5, 5-Amino-N-(4-sulfamoylphenyl)-7-(o-tolyl)-4,7-dihydro-[1,2,4]-triazolo[1,5-a][1,3,5]triazine-2-carboxamide] | 180 | 32.51 ± 0.03 | 56.64 ± 0.01 | 74.32 ± 0.03 | 97.7 | 1.84 | 60.01 ± 0.05 | 67.25 ± 0.02 | 75.31 ± 0.01 | 59.7 | 64.5 | 70.3 | 78.2 | – | – |
| NC1=NC(/C=C/c2ccccc2)n2nc(C(=O)Nc3ccc(S(N)(=O)=O)cc3)nc2N1 (centres unmarked) [Compound 6, (E)-5-Amino-7-styryl-N-(4-sulfamoylphenyl)-4,7-dihydro-[1,2,4]-triazolo[1,5-a][1,3,5]triazine-2-carboxamide] | – | – | – | – | – | – | – | – | – | 53.7 | 58.4 | 67.4 | 72.1 | less inhibition | less inhibition |
| NC1=NC(C2N=C(N)Nc3nc(C(=O)Nc4ccc(S(N)(=O)=O)cc4)nn32)n2nc(C(=O)Nc3ccc(S(N)(=O)=O)cc3)nc2N1 (centres unmarked) [Compound 7, 5,5′-Diamino-N2,N2′-bis(4-sulfamoylphenyl)-4,4′,7,7′-tetrahydro-[7,7′-bi[1,2,4]triazolo[1,5-a][1,3,5]triazine]-2,2′-dicarboxamide] | – | – | – | – | – | – | – | – | – | 54.7 | 59.5 | 65.3 | 73.2 | less inhibition | less inhibition |
| NC1=NC(c2cccc3ccccc23)n2nc(C(=O)Nc3ccc(S(N)(=O)=O)cc3)nc2N1 (centres unmarked) [Compound 10, 5-Amino-7-(naphthalen-1-yl)-N-(4-sulfamoylphenyl)-4,7-dihydro-[1,2,4]-triazolo[1,5-a][1,3,5]triazine-2-carboxamide] | – | – | – | – | – | – | – | – | – | 55 | 59.7 | 65.5 | 73.4 | less inhibition | less inhibition |
| NC1=NC(c2ccccc2O)n2nc(C(=O)Nc3ccc(S(N)(=O)=O)cc3)nc2N1 (centres unmarked) [Compound 11, 5-Amino-7-(2-hydroxyphenyl)-N-(4-sulfamoylphenyl)-4,7-dihydro-[1,2,4]-triazolo[1,5-a][1,3,5]triazine-2-carboxamide] | 141 | 41.28 ± 0.04 | 63.43 ± 0.04 | 80.12 ± 0.03 | 96.7 | 1.46 | 60.3 ± 0.05 | 81.99 ± 0.01 | 98.97 ± 0.06 | 83.4 | 88.2 | 93.9 | 98.2 | – | – |
| NC1=NC(c2cccc(O)c2)n2nc(C(=O)Nc3ccc(S(N)(=O)=O)cc3)nc2N1 (centres unmarked) [Compound 13, 5-Amino-7-(3-hydroxyphenyl)-N-(4-sulfamoylphenyl)-4,7-dihydro-[1,2,4]-triazolo[1,5-a][1,3,5]triazine-2-carboxamide] | – | – | – | – | – | – | – | – | – | 55 | 59.8 | 65.7 | 73.6 | less inhibition | less inhibition |

The next lines start with the values.

| IC50 (COX-1) [µM] | inhibition at 50 µg/mL (COX-1) [%] | inhibition at 100 µg/mL (COX-1) [%] | inhibition at 150 µg/mL (COX-1) [%] | IC50 (COX-2) [µM] | Selectivity index (COX-2) | inhibition at 50 µg/mL (COX-2) [%] | inhibition at 100 µg/mL (COX-2) [%] | inhibition at 150 µg/mL (COX-2) [%] | inhibition at 50 µg/mL (egg albumin) [%] | inhibition at 100 µg/mL (egg albumin) [%] | inhibition at 200 µg/mL (egg albumin) [%] | inhibition at 300 µg/mL (egg albumin) [%] | Inhibition of COX-1 in comparison to indomethacin (COX-1) | Inhibition of COX-2 in comparison to indomethacin (COX-2) | Compound |
| --- | --- | --- | --- | --- | --- | --- | --- | --- | --- | --- | --- | --- | --- | --- | --- |
| 186 | 30.12 ± 0.02 | 55.41 ± 0.05 | 71.23 ± 0.05 | 89.3 | 2.07 | 62.64 ± 0.01 | 64.78 ± 0.01 | 71.61 ± 0.01 | 59.5 | 64.2 | 70 | 77.9 | – | – | NC1=NC(c2ccccc2Cl)n2nc(C(=O)Nc3ccc(S(N)(=O)=O)cc3)nc2N1 (centres unmarked) [Compound 8, 5-Amino-7-(2-chlorophenyl)-N-(4-sulfamoylphenyl)-4,7-dihydro-[1,2,4]-triazolo[1,5-a][1,3,5]triazine-2-carboxamide] |
| – | – | – | – | – | – | – | – | – | 51 | 55.8 | 61.6 | 69.5 | less inhibition | less inhibition | COc1ccc(C2N=C(N)Nc3nc(C(=O)Nc4ccc(S(N)(=O)=O)cc4)nn32)cc1 (centres unmarked) [Compound 9, 5-Amino-7-(4-methoxyphenyl)-N-(4-sulfamoylphenyl)-4,7-dihydro-[1,2,4]-triazolo[1,5-a][1,3,5]triazine-2-carboxamide] |
| 192 | 28.64 ± 0.04 | 53.24 ± 0.03 | 70.68 ± 0.04 | 92.9 | 2.06 | 59.1 ± 0.01 | 80.98 ± 0.02 | 98.4 ± 0.02 | 55.8 | 60.5 | 66.3 | 74.2 | – | – | CN(C)c1ccc(C2N=C(N)Nc3nc(C(=O)Nc4ccc(S(N)(=O)=O)cc4)nn32)cc1 (centres unmarked) [Compound 12, 5-Amino-7-(4-(dimethylamino)phenyl)-N-(4-sulfamoylphenyl)-4,7-dihydro-[1,2,4]-triazolo[1,5-a][1,3,5]triazine-2-carboxamide] |
